# Assay results from patent US7973018B2, “Cell cycle arrest and apoptosis” (University of Utah Research Foundation, priority 2004, dated 2011).
# “Also recorded” adds a separate entry of the source.
# Legend:
# BRCA1 [1] = assay: BRCA1 focus formation, immunofluorescence confocal microscopy; assay type: cell-based, human
# Procedure: (§1) Immunofluorescence staining. HeLa cells were harvested 48 h posttransduction by trypsinization. Single-cell suspensions of minced thymic tissue were prepared for immunostaining 20 h after HIV-1NL4-3 infection. Cells were fixed with 2% paraformaldehyde in phosphate-buffered saline (PBS) for 35 min at 4° C. and then washed three times for 5 min each time in PBS. All subsequent steps were carried out at room temperature. Samples were blocked and permeabilized for 20 min in blocking buffer (3% bovine serum albumin (BSA), 0.2% Triton X-100, and 0.01% skim milk in PBS). Primary antibody (rabbit anti-γ-H2AX (48) or rabbit anti-BRCA1 (Bethyl Laboratories, Montgomery, Tex.)) was diluted 1:400 in incubation buffer (1% BSA and 0.02% Triton X-100 in PBS) and incubated with cells for 45 min. Cells were washed with PBS, after which secondary antibody (goat anti-rabbit immunoglobulin G (IgG)-AlexaFluor568 conjugate (Molecular Probes, Eugene, Oreg.)) diluted 1:500 in incubation buffer was applied for 35 min. Cells were washed with PBS as before and mounted on glass slides by using Fluor Save reagent (CalBiochem, San Diego, Calif.). Cells were visualized for γ-H2AX or BRCA1 immunostaining and green fluorescent protein (GFP) expression by scanning fluorescence confocal microscopy (FluoView FV300; Olympus, Melville, N.Y.).
# (§2) Drug treatment. Cells were incubated with 10 mM hydroxyurea (HU) for 2 h before immunostaining was done.
# (§3) Vpr expression induces γ-H2AX and BRCA1 focus formation. It was possible that Vpr, through ATR activation, would induce γ-H2AX (9) and BRCA1 (45) focus formation. To test this hypothesis, HeLa cells were infected with pHR-Vpr or pHR-GFP and, 48 h later, immunostained with γ-H2AX- or BRCA1-specific antibodies. As a positive control, nontransduced cells were treated for […] with 10 mM HU 10 min prior to immunostaining (46). Samples then were visualized by fluorescence scanning confocal microscopy (FIGS. 3A and B). Cells with multiple (10 or more), intense nuclear foci were manually counted. […]
# γ-H2AX = γ-H2AX focus formation, immunofluorescence confocal microscopy; assay type: cell-based, human
# Procedure: as §1, §2, §3
# Chk1 = details: ATR target Chk1; reference 40; cited from earlier work
# BRCA1 [2] = assay: Western blot for BRCA1 phospho-serine 1423; assay type: cell-based, human; details: HeLa cells infected with pHR-VPR, 48 hours post-transduction
# Procedure: Western blotting procedures. All western blots were performed using the BioRad Criterion gel system (BioRad, Hercules, Calif.). Antibodies used were GADD45 (Santa Cruz Biotechnology, Santa Cruz, Calif.; sc-797), Actin (Santa Cruz Biotechnologies, Santa Cruz, Calif.; sc-797), CHK2 (Santa Cruz Biotechnology, Santa Cruz, Calif.; sc-8813), ATM (Novus Biologicals, Littleton, Colo.; catalog #100-104H1), phospho-JNK-Tyr183 (Cell Signaling Technology, Beverly, Mass.; catalog #9255S), phospho-p38 kinase (Promega, Madison; 15823207), JNK (Cell Signaling Technology, Beverly, Mass.; 9252), ATR (obtained from Dr. Paul Nghiem, Harvard), anti-rabbit secondary-HRP (Santa Cruz Biotechnology, Santa Cruz, Calif.; sc-2030), anti-goat secondary-HRP (Santa Cruz Biotechnology, Santa Cruz, Calif.; sc-2033), PARP (Cell Signaling Technology, Beverly, Mass.), BRCA1 phospho ser1423 (Bethyl Laboratories, Montgomery, Tex.) Rabbit primary antibodies against Rad17 (Santa Cruz Biotechnology, Santa Cruz, Calif.), and were applied for 90 min at room temperature. Blots were washed three times in TPBS (0.1% Tween 20 in PBS) for 10 min each time at room temperature.
# Phosphorylation of BRCA1 at serine 1423 by HIV-1 Vpr is ATR-dependent. Following DNA damage, ATR phosphorylates BRCA1 at serine 1423 (45, 63). […]
# HeLa cells = assay: Cell cycle analysis (G2 arrest) by flow cytometry in HeLa cells; assay type: cell-based, human; parameters: key: P, phosphorylated; A, activated; N, necessary for G2 checkpoint activation; F, focus formation; ?, unknown; D, dispensable for G2 checkpoint activation; details: ATR target Rad17; this work
# Procedure: Cell cycle analysis. At 48 h after infection, cells were detached by trypsinization, washed with fluorescence-activated cell sorting (FACS) buffer (2% FBS and 0.02% sodium azide in PBS), fixed with 2% paraformaldehyde in PBS, and permeabilized with 0.01% Triton X-100 in PBS for 15 min. Cells were washed again with FACS buffer, incubated in DNA staining buffer (10 μg of propidium iodide/ml and 11.25 kU of RNase A/ml in FACS buffer) for 15 min, and analyzed by FACScan flow cytometry for GFP expression or DNA content (Beckton Dickinson, Franklin Lakes, N.J.). In experiments involving transduction with lentivirus vectors, experiments with 90% transduction efficiency or higher were analyzed. […]
# Lentivirus vectors. […] Vector titers were measured by infection of HeLa cells as described herein, followed by flow cytometric analysis of cells that were positive for the reporter molecule, GFP. Vector titers were calculated with the equation [(F×C0)/V]×D, where F is the frequency of GFP-positive cells found by flow cytometry, C0 is the total number of target cells at the time of infection, V is the volume of inoculum, and D is the virus dilution factor. […]
# Rad17 is necessary for Vpr-mediated G2 arrest. […] At 48 h after transduction, cells were analyzed by flow cytometry for infection efficiency and DNA content, as reported by GFP expression and propidium iodide staining, respectively. […]
# p53 = tested on: p53; parameters: key: P, phosphorylated; A, activated; N, necessary for G2 checkpoint activation; F, focus formation; ?, unknown; D, dispensable for G2 checkpoint activation; details: ATR target p53; reference 41; cited from earlier work
# ATM and ATR = details: vpr-infected cells; references 5, 53; cited from earlier work
# ATR and ATM = details: references 40, 53; cited from earlier work
# [3] = nontransduced HeLa cells treated for 1 h with 10 mM HU
# [4] = HeLa cells, 48 h after infection, 10 or more intense nuclear foci
compound,measurement,setting,value
"NC(=O)NO [HU, hydroxyurea, reference compound]",cells exhibiting BRCA1 foci,BRCA1 [1]; [3],~65%
same,cells exhibiting γ-H2AX foci,γ-H2AX; [3],Approximately 94%
"Vpr: HIV-1 accessory protein Vpr, expressed in cells from pHR-Vpr",Status in the presence of Vpr (reference or source): BRCA1,"BRCA1 [1]; ATR target BRCA1, this work","P, F (this work)"
same,cells exhibiting BRCA1 foci,BRCA1 [1]; [4],~69%
same,Status in the presence of Vpr (reference or source): Chk1,Chk1,"P, A (40)"
same,Status in the presence of Vpr (reference or source): H2AX,"γ-H2AX; ATR target H2AX, this work","P, F (this work)"
same,cells exhibiting γ-H2AX foci,γ-H2AX; [4],Approximately 93%
same,phosphorylation of BRCA1 at serine 1423,BRCA1 [2],induced phosphorylation of BRCA1 at serine 1423
same,Status in the presence of Vpr (reference or source): Rad17,HeLa cells,N (this work)
same,Status in the presence of Vpr (reference or source): p53,p53,D (41)
Cn1c(=O)c2c(ncn2C)n(C)c1=O [caffeine],effect on Vpr-induced apoptosis,ATM and ATR,largely eliminated induction of apoptosis; also recorded: significantly reduces Vpr-induced apoptosis
same,relief of Vpr-induced G2 arrest,ATR and ATM,completely relieve Vpr-induced G2 arrest
